System: 233499-124-R-J3-PDC spheroids with HUVEC/MSC, viability
Assay: Anticancer human tumor 233499-124-R-J3-PDC patient-derived colon adenocarcinoma cell line growth inhibition [PI3K]
Details: for IC50: curve of first compound; for viability, T/C: stronger effect = lower value; active = viability on the fitted dose curve at most 10% of control; inactive = the rest
In short: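 Tumor cells were combined with HUVEC and MSCs into spheroids, then dosed with PI3K-inhibitor combinations over half-log ranges capped near clinical Cmax or 10 microM.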

[1] = second compound 0.0316 µM, first compound 0.0316 µM
[2] = second compound 0.0316 µM, first compound 0.1 µM
[3] = second compound 0.0316 µM, first compound 0.316 µM
[4] = second compound 0.0316 µM, first compound 1 µM
[5] = second compound 0.0316 µM, first compound 3.16 µM
[6] = second compound 0.0316 µM, first compound 10 µM
[7] = second compound 0.1 µM, first compound 0.0316 µM
[8] = second compound 0.1 µM, first compound 0.1 µM
[9] = second compound 0.1 µM, first compound 0.316 µM
[10] = second compound 0.1 µM, first compound 1 µM
[11] = second compound 0.1 µM, first compound 3.16 µM
[12] = second compound 0.1 µM, first compound 10 µM
[13] = second compound 0.316 µM, first compound 0.0316 µM
[14] = second compound 0.316 µM, first compound 0.1 µM
[15] = second compound 0.316 µM, first compound 0.316 µM
[16] = second compound 0.316 µM, first compound 1 µM
[17] = second compound 0.316 µM, first compound 3.16 µM
[18] = second compound 0.316 µM, first compound 10 µM
[19] = second compound 1 µM, first compound 0.0316 µM
[20] = second compound 1 µM, first compound 0.1 µM
[21] = second compound 1 µM, first compound 0.316 µM
[22] = second compound 1 µM, first compound 1 µM
[23] = second compound 1 µM, first compound 3.16 µM
[24] = second compound 1 µM, first compound 10 µM
[25] = second compound 3.16 µM, first compound 0.0316 µM
[26] = second compound 3.16 µM, first compound 0.1 µM
[27] = second compound 3.16 µM, first compound 0.316 µM
[28] = second compound 3.16 µM, first compound 1 µM
[29] = second compound 3.16 µM, first compound 3.16 µM
[30] = second compound 3.16 µM, first compound 10 µM
[31] = second compound 10 µM, first compound 0.0316 µM
[32] = second compound 10 µM, first compound 0.1 µM
[33] = second compound 10 µM, first compound 0.316 µM
[34] = second compound 10 µM, first compound 1 µM
[35] = second compound 10 µM, first compound 3.16 µM
[36] = second compound 10 µM, first compound 10 µM
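Note: spheroids exposed to agents for seven days before readout.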
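Throughout, for viability, T/C: percent viability relative to DMSO vehicle control taken as 100%.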

CC(C)NCC(C(=O)N1CCN(c2ncnc3c2C(C)CC3O)CC1)c1ccc(Cl)cc1 (stereo unspecified) + Cc1nc(NC(=O)N2CCCC2C(N)=O)sc1-c1ccnc(C(C)(C)C(F)(F)F)c1
> 10000 nM: IC50 (second compound 0.0316 µM) | IC50 (second compound 0.1 µM) | IC50 (second compound 0.316 µM) | IC50 (second compound 1 µM)
1190 nM: IC50 (second compound 3.16 µM)
inactive: viability, T/C [1] 95.8% | viability, T/C [2] 104% | viability, T/C [3] 94.6% | viability, T/C [4] 86.5% | viability, T/C [5] 94.3% | viability, T/C [6] 56.5% | viability, T/C [7] 91.3% | viability, T/C [8] 94.7% | viability, T/C [9] 96.4% | viability, T/C [10] 83.2% | viability, T/C [11] 91.6% | viability, T/C [12] 51.4% | viability, T/C [13] 87.3% | viability, T/C [14] 82.3% | viability, T/C [15] 80.7% | viability, T/C [16] 76.6% | viability, T/C [17] 74.1% | viability, T/C [18] 72.8% | viability, T/C [19] 84.5% | viability, T/C [20] 75% | viability, T/C [21] 60.7% | viability, T/C [22] 71.7% | viability, T/C [23] 73.4% | viability, T/C [24] 62.1% | viability, T/C [25] 63.1% | viability, T/C [26] 29.6% | viability, T/C [27] 69.9% | viability, T/C [28] 59% | viability, T/C [29] 33.6% | viability, T/C [30] 43% | viability, T/C [31] 22.1% | viability, T/C [32] 19.2% | viability, T/C [33] 28.3% | viability, T/C [34] 22.6% | viability, T/C [35] 31.3% | viability, T/C [36] 23.9%
< 31.6 nM: IC50 (second compound 10 µM)

CCN1CCN(Cc2ccc(Nc3ncc(F)c(-c4cc(F)c5nc(C)n(C(C)C)c5c4)n3)nc2)CC1 + Cc1nc(NC(=O)N2CCCC2C(N)=O)sc1-c1ccnc(C(C)(C)C(F)(F)F)c1
inactive: viability, T/C (second compound 0.0316 µM, first compound 0.00316 µM) 67.3% | viability, T/C (second compound 0.0316 µM, first compound 0.01 µM) 90.7% | viability, T/C [1] 74% | viability, T/C [2] 79.7% | viability, T/C [3] 59.5% | viability, T/C [4] 39.6% | viability, T/C (second compound 0.1 µM, first compound 0.00316 µM) 72.5% | viability, T/C (second compound 0.1 µM, first compound 0.01 µM) 86.7% | viability, T/C [7] 67.5% | viability, T/C [8] 52.6% | viability, T/C [9] 66.6% | viability, T/C [10] 43.4% | viability, T/C (second compound 0.316 µM, first compound 0.00316 µM) 94.8% | viability, T/C (second compound 0.316 µM, first compound 0.01 µM) 79.2% | viability, T/C [13] 71.9% | viability, T/C [14] 47.6% | viability, T/C [15] 49.5% | viability, T/C [16] 30.7% | viability, T/C (second compound 1 µM, first compound 0.00316 µM) 52.5% | viability, T/C (second compound 1 µM, first compound 0.01 µM) 49.5% | viability, T/C [19] 49.7% | viability, T/C [20] 49.2% | viability, T/C [21] 38.4% | viability, T/C [22] 21.3% | viability, T/C (second compound 3.16 µM, first compound 0.00316 µM) 55.4% | viability, T/C (second compound 3.16 µM, first compound 0.01 µM) 49.1% | viability, T/C [25] 37.7% | viability, T/C [26] 36.6% | viability, T/C [27] 25% | viability, T/C [28] 24.4% | viability, T/C (second compound 10 µM, first compound 0.00316 µM) 28.1% | viability, T/C (second compound 10 µM, first compound 0.01 µM) 21.9% | viability, T/C [31] 27.6% | viability, T/C [32] 21.1% | viability, T/C [33] 21.3% | viability, T/C [34] 20.7%
36 nM: IC50 (second compound 1 µM)
658 nM: IC50 (second compound 0.1 µM)
7.26 nM: IC50 (second compound 3.16 µM)
< 3.16 nM: IC50 (second compound 10 µM)
547 nM: IC50 (second compound 0.0316 µM)
164 nM: IC50 (second compound 0.316 µM)

Cn1ncc(Cl)c1-c1cc(C(=O)NC(CN)Cc2cccc(F)c2)sc1Cl (stereo unspecified) + Cc1nc(NC(=O)N2CCCC2C(N)=O)sc1-c1ccnc(C(C)(C)C(F)(F)F)c1
< 31.6 nM: IC50 (second compound 10 µM)
5530 nM: IC50 (second compound 0.0316 µM)
558 nM: IC50 (second compound 3.16 µM)
4030 nM: IC50 (second compound 0.316 µM)
inactive: viability, T/C [1] 110% | viability, T/C [2] 90.8% | viability, T/C [3] 87.1% | viability, T/C [4] 77.2% | viability, T/C [5] 70% | viability, T/C [6] 34.1% | viability, T/C [7] 102% | viability, T/C [8] 86.6% | viability, T/C [9] 82.8% | viability, T/C [10] 57.2% | viability, T/C [11] 53.5% | viability, T/C [12] 39.3% | viability, T/C [13] 85.3% | viability, T/C [14] 94% | viability, T/C [15] 76.2% | viability, T/C [16] 64.4% | viability, T/C [17] 62.1% | viability, T/C [18] 27.7% | viability, T/C [19] 81.9% | viability, T/C [20] 74.3% | viability, T/C [21] 72.7% | viability, T/C [22] 75.2% | viability, T/C [23] 45.3% | viability, T/C [24] 18.7% | viability, T/C [25] 62% | viability, T/C [26] 69.9% | viability, T/C [27] 55.3% | viability, T/C [28] 38.1% | viability, T/C [29] 35.3% | viability, T/C [30] 14.4% | viability, T/C [31] 29.3% | viability, T/C [32] 29.4% | viability, T/C [33] 23% | viability, T/C [34] 25.5% | viability, T/C [35] 30% | viability, T/C [36] 2.94%
3310 nM: IC50 (second compound 0.1 µM)
2630 nM: IC50 (second compound 1 µM)
